Test results as given in US10570122B2, “Compounds with anti-tumoral activity” (AB Science, priority 2015, dated 2020).

Experiments:
HL60 = test: CellTiter-Blue cell-based survival/proliferation assay, HL60; conditions: Homo sapiens, HL-60, Leukemia cell line HL60, 48 h, read-out: Anti-tumoral activity (measured IC50) HL60
Description: (§1) Cell-Based Proliferation Screening of Compounds
(§2) CellTiter-Blue cell-based survival/proliferation assay (Promega G8080) was performed on tumor cell lines. A total of 1·10^4 cells/well/50 μl were seeded in a 96-wells plate. Treatment was initiated by addition of a 2× drug solution of 1/10 serial dilutions ranging from 0 to 10 μM. Cells were grown for 48 h at 37° C. and then incubated with 10 μl/well of Promega CellTiter-Bleue reagent for 4 h at 37° C. The amount of resorufin dye formed was quantified by its fluorescence emission at 590 nm using a scanning multiwell spectrophotometer (OPTIMA, BMG labtech, France). A blank well without cells was used as a background control for the spectrophotometer.

HUT78 = test: CellTiter-Blue cell-based survival/proliferation assay, HUT78; conditions: Homo sapiens, Lymphoma cell line HUT78, 48 h, read-out: Anti-tumoral activity (measured IC50) HUT78
Description: as §1, §2

KARPAS299 = test: CellTiter-Blue cell-based survival/proliferation assay, KARPAS299; conditions: Homo sapiens, KARPAS-299, Lymphoma cell line KARPAS299, 48 h, read-out: Anti-tumoral activity (measured IC50) KARPAS299
Description: as §1, §2

REC1 = test: CellTiter-Blue cell-based survival/proliferation assay, REC1; conditions: Homo sapiens, Lymphoma cell line REC1, 48 h, read-out: Anti-tumoral activity (measured IC50) REC1
Description: as §1, §2

OPM2 = test: CellTiter-Blue cell-based survival/proliferation assay, OPM2; conditions: Homo sapiens, OPM-2, Myeloma cell line OPM2, 48 h, read-out: Anti-tumoral activity (measured IC50) OPM2
Description: as §1, §2

A498 = test: CellTiter-Blue cell-based survival/proliferation assay, A498; conditions: Homo sapiens; A498 kidney tumor cell line, 48 h
Description: as §1, §2

A549 = test: CellTiter-Blue cell-based survival/proliferation assay, A549; conditions: Homo sapiens; A549 lung tumor cell line, 48 h
Description: as §1, §2

ACHN = test: CellTiter-Blue cell-based survival/proliferation assay, ACHN; conditions: Homo sapiens; ACHN kidney tumor cell line, 48 h
Description: as §1, §2

AGS = test: CellTiter-Blue cell-based survival/proliferation assay, AGS; conditions: Homo sapiens; AGS stomach tumor cell line, 48 h
Description: as §1, §2

BT20 = test: CellTiter-Blue cell-based survival/proliferation assay, BT20; conditions: Homo sapiens, BT-20; BT20 breast tumor cell line, 48 h
Description: as §1, §2

BXPC3 = test: CellTiter-Blue cell-based survival/proliferation assay, BXPC3; conditions: Homo sapiens, BXPC-3; BXPC3 pancreas tumor cell line, 48 h
Description: as §1, §2

CALU6 = test: CellTiter-Blue cell-based survival/proliferation assay, CALU6; conditions: Homo sapiens, Calu-6; CALU6 lung tumor cell line, 48 h
Description: as §1, §2

CLS354 = test: CellTiter-Blue cell-based survival/proliferation assay, CLS354; conditions: Homo sapiens, CLS-354; CLS354_4 head & neck tumor cell line, 48 h
Description: as §1, §2

DLD1 = test: CellTiter-Blue cell-based survival/proliferation assay, DLD1; conditions: Homo sapiens, DLD-1; DLD_1 colorectal tumor cell line, 48 h
Description: as §1, §2

DU145 = test: CellTiter-Blue cell-based survival/proliferation assay, DU145; conditions: Homo sapiens, DU-145; DU145 prostate tumor cell line, 48 h
Description: as §1, §2

H1299 = test: CellTiter-Blue cell-based survival/proliferation assay, H1299; conditions: Homo sapiens, NCI-H1299; H1299 lung tumor cell line, 48 h
Description: as §1, §2

HCT116 = test: CellTiter-Blue cell-based survival/proliferation assay, HCT116; conditions: Homo sapiens, HCT-116; HCT116 colorectal tumor cell line, 48 h
Description: as §1, §2

HEP2 = test: CellTiter-Blue cell-based survival/proliferation assay, HEP2; conditions: Homo sapiens, HEp-2; HEP2 head & neck tumor cell line, 48 h
Description: as §1, §2

HEPG2 = test: CellTiter-Blue cell-based survival/proliferation assay, HEPG2; conditions: Homo sapiens; HEPG2 liver tumor cell line, 48 h
Description: as §1, §2

HGC27 = test: CellTiter-Blue cell-based survival/proliferation assay, HGC27; conditions: Homo sapiens, HGC-27; HGC27 stomach tumor cell line, 48 h
Description: as §1, §2

MDAMB231 = test: CellTiter-Blue cell-based survival/proliferation assay, MDAMB231; conditions: Homo sapiens, MDA-MB-231; MDAMB231 breast tumor cell line, 48 h
Description: as §1, §2

MESSA = test: CellTiter-Blue cell-based survival/proliferation assay, MESSA; conditions: Homo sapiens, MES-SA; MESSA ovary tumor cell line, 48 h
Description: as §1, §2

PANC1 = test: CellTiter-Blue cell-based survival/proliferation assay, PANC1; conditions: Homo sapiens, PANC-1; PANC_1 pancreas tumor cell line, 48 h
Description: as §1, §2

PC3 = test: CellTiter-Blue cell-based survival/proliferation assay, PC3; conditions: Homo sapiens, PC-3; PC3 prostate tumor cell line, 48 h
Description: as §1, §2

PLCPRF5 = test: CellTiter-Blue cell-based survival/proliferation assay, PLCPRF5; conditions: Homo sapiens, PLC-PRF-5; PLC_PRF5 liver tumor cell line, 48 h
Description: as §1, §2

SW579 = test: CellTiter-Blue cell-based survival/proliferation assay, SW579; conditions: Homo sapiens; SW579 head & neck tumor cell line, 48 h
Description: as §1, §2

TOV112D = test: CellTiter-Blue cell-based survival/proliferation assay, TOV112D; conditions: Homo sapiens; TOV112D ovary tumor cell line, 48 h
Description: as §1, §2

[1] = test system: panel of about 34 human tumor cell lines; test: Cell-based proliferation screening on panel of tumor cell lines; conditions: solid tumor cell line, cell line unknown, 48 h, read-out: IC50, solid tumor cell line of column 6 (last section of Table 3)
Description: Compounds of formula (I) were tested against a panel of about 34 human tumor cell lines representing 17 cancer type, namely leukemia (represented by 1 cell line), lymphoma (4 cell lines), myeloma (1 cell line), colorectal (2 cell lines), head and neck (3 cell lines), lung (3 cell lines), melanoma (2 cell lines), pancreas (2 cell lines), prostate (2 cell lines), ovary (2 cell lines) breast (2 cell lines), kidney (2 cell lines), stomach (2 cell lines), liver (2 cell lines), glioblastoma (2 cell lines), osteosarcoma (1 cell line), Ewing Sarcoma (1 cell line).
as §1, §2

Structure (SMILES) | IC50 (HL60) [µM] | IC50 (OPM2) [µM] | IC50 (A498) [µM] | IC50 (A549) [µM] | IC50 (ACHN) [µM] | IC50 (AGS) [µM] | IC50 (BT20) [µM] | IC50 (BXPC3) [µM] | IC50 (CALU6) [µM] | IC50 (CLS354) [µM] | IC50 (DLD1) [µM] | IC50 (DU145) [µM] | IC50 (H1299) [µM] | IC50 (HCT116) [µM] | IC50 (HEP2) [µM] | IC50 (HEPG2) [µM] | IC50 (HGC27) [µM] | IC50 (MDAMB231) [µM] | IC50 (MESSA) [µM] | IC50 (PANC1) [µM] | also measured
Cc1ccc(CO)cc1Nc1ncc(-c2ccc(-n3cccn3)cc2)o1 [Example 027, {4-Methyl-3-[5-(4-pyrazol-1-yl-phenyl)-oxazol-2-ylamino]-phenyl}-methanol] | > 1 | > 1 | > 1 | > 1 | > 1 | > 1 | > 1 | > 1 | > 1 | > 1 | > 1 | > 1 | > 1 | > 1 | > 1 | > 1 | > 1 | > 1 | > 1 | > 1 | IC50 (HUT78): > 1 µM; IC50 (KARPAS299): > 1 µM; IC50 (REC1): > 1 µM; IC50 (PC3): > 1 µM; IC50 (PLCPRF5): > 1 µM; IC50 (SW579): > 1 µM; IC50 (TOV112D): > 1 µM; IC50 [1]: > 1 µM
CCOCc1cc(C)cc(Nc2ncc(-c3ccc(-n4cccn4)cc3)o2)c1 [Example 021, (3-Ethoxymethyl-5-methyl-phenyl)-[5-(4-pyrazol-1-yl-phenyl)-oxazol-2-yl]-amine] | 0.1 to 0.5 | 0.1 to 0.5 | > 1 | > 1 | > 1 | > 1 | > 1 | > 1 | > 1 | 0.1 to 0.5 | 0.5 to 1 | > 1 | > 1 | > 1 | > 1 | > 1 | > 1 | > 1 | > 1 | > 1 | IC50 (HUT78): 0.5 to 1 µM; IC50 (KARPAS299): 0.1 to 0.5 µM; IC50 (REC1): 0.1 to 0.5 µM; IC50 (PC3): 0.5 to 1 µM; IC50 (PLCPRF5): > 1 µM; IC50 (SW579): > 1 µM; IC50 (TOV112D): > 1 µM; IC50 [1]: 0.1 to 0.5 µM
CCOCc1ccc(C)c(Nc2ncc(-c3ccc(-c4cn[nH]c4)cc3)o2)c1 [Example 060, 5-(4-(1H-pyrazol-4-yl)phenyl)-N-(5-(ethoxymethyl)-2-methylphenyl)oxazol-2-amine] | 0.5 to 1 | 0.5 to 1 | > 1 | > 1 | > 1 | > 1 | > 1 | > 1 | > 1 | > 1 | > 1 | > 1 | > 1 | > 1 | > 1 | > 1 | > 1 | > 1 | > 1 | > 1 | IC50 (PC3): > 1 µM; IC50 (PLCPRF5): > 1 µM; IC50 (SW579): > 1 µM; IC50 (TOV112D): > 1 µM; IC50 [1]: > 1 µM
CCOCc1ccc(C)c(Nc2ncc(-c3ccc(-c4ccn[nH]4)cc3)o2)c1 [Example 057, 5-(4-(1H-pyrazol-5-yl)phenyl)-N-(5-(ethoxymethyl)-2-methylphenyl)oxazol-2-amine] | 0.1 to 0.5 | 0.1 to 0.5 | > 1 | > 1 | > 1 | > 1 | > 1 | > 1 | > 1 | 0.1 to 0.5 | > 1 | > 1 | > 1 | > 1 | 0.5 to 1 | > 1 | > 1 | > 1 | > 1 | > 1 | IC50 (PC3): 0.5 to 1 µM; IC50 (PLCPRF5): > 1 µM; IC50 (SW579): > 1 µM; IC50 (TOV112D): ≤ 0.1 µM; IC50 [1]: 0.5 to 1 µM
CCOCc1ccc(C)c(Nc2ncc(-c3ccc(N4C(=O)NC[C@H]4C)nc3)o2)c1 [Example 058, (R)-1-(5-(2-((5-(ethoxymethyl)-2-methylphenyl)amino)oxazol-5-yl)pyridin-2-yl)-5-methylimidazolidin-2-one] | ≤ 0.1 | ≤ 0.1 | > 1 | > 1 | > 1 | > 1 | > 1 | > 1 | > 1 | ≤ 0.1 | > 1 | > 1 | > 1 | > 1 | 0.1 to 0.5 | > 1 | > 1 | > 1 | > 1 | > 1 | IC50 (PC3): ≤ 0.1 µM; IC50 (PLCPRF5): > 1 µM; IC50 (SW579): > 1 µM; IC50 (TOV112D): ≤ 0.1 µM; IC50 [1]: 0.1 to 0.5 µM
